Source: patent publication US10168342B2, “Lipid probes and uses thereof” (THE SCRIPPS RESEARCH INSTITUTE, priority 2015, dated 2019)
Like-named read-outs stand apart in the source and are kept apart here.

Columns and labels:
[1] = target: T1, AEA-DA lipid probe targets in Neuro2a cells (Mus musculus, UniProt Q62465); settings: for SILAC ratio, VAT1 (Q99536): Neuro2a cells, AEA-DA probe
T1 sequence (Q62465 1-406): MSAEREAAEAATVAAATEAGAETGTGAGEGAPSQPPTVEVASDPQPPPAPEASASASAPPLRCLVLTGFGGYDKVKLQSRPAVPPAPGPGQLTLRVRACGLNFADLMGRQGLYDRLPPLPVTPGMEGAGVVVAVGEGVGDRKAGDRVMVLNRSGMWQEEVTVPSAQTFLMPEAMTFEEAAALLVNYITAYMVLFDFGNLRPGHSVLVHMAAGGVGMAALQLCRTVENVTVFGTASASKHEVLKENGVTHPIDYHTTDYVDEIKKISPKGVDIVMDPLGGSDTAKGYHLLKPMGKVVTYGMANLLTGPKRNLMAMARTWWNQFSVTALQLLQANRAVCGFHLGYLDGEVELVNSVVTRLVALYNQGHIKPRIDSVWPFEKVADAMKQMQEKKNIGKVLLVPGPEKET

[2] = target: T2, AEA-DA lipid probe targets in Neuro2a cells (Mus musculus, UniProt Q91YQ5)
T2 sequence (Q91YQ5 26-608): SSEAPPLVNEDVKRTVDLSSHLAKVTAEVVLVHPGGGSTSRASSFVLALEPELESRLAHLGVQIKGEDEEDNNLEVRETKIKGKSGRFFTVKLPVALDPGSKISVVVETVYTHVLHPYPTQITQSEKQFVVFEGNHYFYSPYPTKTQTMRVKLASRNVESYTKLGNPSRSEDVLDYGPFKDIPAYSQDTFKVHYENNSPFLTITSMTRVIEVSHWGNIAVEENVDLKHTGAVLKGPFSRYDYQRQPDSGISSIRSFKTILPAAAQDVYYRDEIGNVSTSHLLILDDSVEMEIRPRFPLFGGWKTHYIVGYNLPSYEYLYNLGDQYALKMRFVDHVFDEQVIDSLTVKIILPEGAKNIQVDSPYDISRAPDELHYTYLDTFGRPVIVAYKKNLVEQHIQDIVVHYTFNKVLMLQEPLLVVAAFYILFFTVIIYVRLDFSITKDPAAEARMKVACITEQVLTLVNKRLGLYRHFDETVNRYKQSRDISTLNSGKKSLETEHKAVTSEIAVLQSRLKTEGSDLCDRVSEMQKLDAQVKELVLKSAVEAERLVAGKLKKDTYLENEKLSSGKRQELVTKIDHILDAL

[3] = target: T3, AEA-DA lipid probe targets in Neuro2a cells (Mus musculus, UniProt Q99JH8)
T3 sequence (Q99JH8 1-212): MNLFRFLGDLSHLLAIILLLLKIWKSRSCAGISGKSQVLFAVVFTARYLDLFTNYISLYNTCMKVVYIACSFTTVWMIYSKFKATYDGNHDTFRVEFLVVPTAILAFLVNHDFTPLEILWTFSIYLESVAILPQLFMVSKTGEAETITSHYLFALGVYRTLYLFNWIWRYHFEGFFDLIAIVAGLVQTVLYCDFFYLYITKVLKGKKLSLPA

[4] = target: T4, AEA-DA lipid probe targets in Neuro2a cells (Mus musculus, UniProt P97311)
T4 sequence (P97311 1-821): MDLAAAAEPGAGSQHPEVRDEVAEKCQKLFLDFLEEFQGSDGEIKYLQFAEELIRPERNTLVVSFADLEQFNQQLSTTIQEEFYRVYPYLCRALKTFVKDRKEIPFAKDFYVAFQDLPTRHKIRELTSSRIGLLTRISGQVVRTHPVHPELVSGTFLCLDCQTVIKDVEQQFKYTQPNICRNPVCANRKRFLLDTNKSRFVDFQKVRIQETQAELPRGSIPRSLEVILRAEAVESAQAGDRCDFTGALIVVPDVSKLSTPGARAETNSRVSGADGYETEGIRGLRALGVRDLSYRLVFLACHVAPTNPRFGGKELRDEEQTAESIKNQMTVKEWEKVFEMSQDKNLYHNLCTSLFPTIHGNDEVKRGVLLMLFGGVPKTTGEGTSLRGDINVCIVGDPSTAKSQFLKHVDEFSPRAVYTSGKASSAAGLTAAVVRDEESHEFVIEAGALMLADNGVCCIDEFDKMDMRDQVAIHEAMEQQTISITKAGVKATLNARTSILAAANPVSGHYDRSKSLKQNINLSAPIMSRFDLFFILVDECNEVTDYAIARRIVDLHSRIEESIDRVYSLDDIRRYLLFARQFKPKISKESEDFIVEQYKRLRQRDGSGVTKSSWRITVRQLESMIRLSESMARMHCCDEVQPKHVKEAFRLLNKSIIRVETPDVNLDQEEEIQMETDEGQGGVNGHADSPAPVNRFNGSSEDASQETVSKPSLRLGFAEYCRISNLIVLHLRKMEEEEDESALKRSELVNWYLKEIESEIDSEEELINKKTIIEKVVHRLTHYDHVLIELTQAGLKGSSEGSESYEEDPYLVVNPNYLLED

[5] = target: T5, AEA-DA lipid probe targets in Neuro2a cells (Mus musculus, UniProt O35887)
T5 sequence (O35887 20-315): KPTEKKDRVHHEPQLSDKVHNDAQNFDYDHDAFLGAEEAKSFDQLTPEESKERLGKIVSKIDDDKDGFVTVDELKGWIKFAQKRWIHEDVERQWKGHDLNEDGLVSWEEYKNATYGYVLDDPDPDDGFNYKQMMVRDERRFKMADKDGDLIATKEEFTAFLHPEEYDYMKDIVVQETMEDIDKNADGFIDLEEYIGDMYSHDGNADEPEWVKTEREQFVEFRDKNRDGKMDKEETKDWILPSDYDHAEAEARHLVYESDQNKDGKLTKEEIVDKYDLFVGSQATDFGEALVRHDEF

[6] = target: T6, AEA-DA lipid probe targets in Neuro2a cells (Mus musculus, UniProt Q99L04)
T6 sequence (Q99L04 1-313): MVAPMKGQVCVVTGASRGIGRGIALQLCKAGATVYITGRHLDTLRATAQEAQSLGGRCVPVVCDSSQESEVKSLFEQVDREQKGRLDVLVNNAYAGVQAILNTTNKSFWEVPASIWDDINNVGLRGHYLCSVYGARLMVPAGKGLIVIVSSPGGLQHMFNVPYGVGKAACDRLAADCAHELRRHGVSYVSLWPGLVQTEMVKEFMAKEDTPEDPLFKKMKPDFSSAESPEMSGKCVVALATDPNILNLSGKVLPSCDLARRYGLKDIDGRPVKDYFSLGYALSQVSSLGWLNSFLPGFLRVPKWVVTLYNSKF

SMILES	SILAC ratio, VAT1 (Q99536) ([1]; competitor 25 μM)	SILAC ratio Vat1 ([1]; competitor 25 μM)	SILAC ratio Rpn1 ([2]; competitor 25 μM)	SILAC ratio Kdelr1 ([3]; competitor 25 μM)	SILAC ratio Mcm6 ([4]; competitor 25 μM)	SILAC ratio, Calu ([5]; competitor 25 μM)	SILAC ratio, Dhrs1 ([6]; competitor 25 μM)	other results
CCCCC/C=C\C/C=C\C/C=C\C/C=C\CCCC(=O)NCCO [AEA, anandamide, reference compound]								SILAC ratio, VAT1 (Q99536) ([1]; competitor 200 μM): 1.6; SILAC ratio Vat1 ([1]; competitor 200 μM): 1.6; SILAC ratio Rpn1 ([2]; competitor 200 μM): 1.6; SILAC ratio Kdelr1 ([3]; competitor 200 μM): 1.2; SILAC ratio Mcm6 ([4]; competitor 200 μM): 1.3; SILAC ratio, Calu ([5]; competitor 200 μM): 1.0; SILAC ratio, Dhrs1 ([6]; competitor 200 μM): 18.4
O=C(/C=C/c1cccnc1)NCCCCC1CCN(C(=O)c2ccccc2)CC1 [FK-866, reference compound]	1.9	1.9	1.2	1.1	1.1	1.0	8.0	
CN1CCN(C(=O)c2c(-c3ccccc3)c3cc([N+](=O)[O-])ccc3n2C)CC1 [KML110, (1-Methyl-5-nitro-3-phenyl-1H-indol-2-yl)(4-methylpiperazin-1-yl)methanone]		1.4	1.2	1.1	2.0	1.1	2.7	
CN1CCN(C(=O)c2[nH]c3ccc([N+](=O)[O-])cc3c2-c2ccccc2)CC1 [MJN228, (4-Methylpiperazin-1-yl)(5-nitro-3-phenyl-1H-indol-2-yl)methanone]		1.3	1.4	1.2	1.4	1.5	1.8	SILAC ratio Vat1 ([1]; competitor 10 μM): 1.2; SILAC ratio Vat1 ([1]; competitor 50 μM): 1.0; SILAC ratio Vat1 ([1]; competitor 100 μM): 1.2; SILAC ratio Rpn1 ([2]; competitor 10 μM): 1.3; SILAC ratio Rpn1 ([2]; competitor 50 μM): 1.2; SILAC ratio Rpn1 ([2]; competitor 100 μM): 1.6; SILAC ratio Kdelr1 ([3]; competitor 10 μM): 1.1; SILAC ratio Kdelr1 ([3]; competitor 50 μM): 1.5; SILAC ratio Kdelr1 ([3]; competitor 100 μM): 1.5; SILAC ratio Mcm6 ([4]; competitor 10 μM): 1.2; SILAC ratio Mcm6 ([4]; competitor 50 μM): 1.0; SILAC ratio Mcm6 ([4]; competitor 100 μM): 1.6; SILAC ratio, Calu ([5]; competitor 10 μM): 1.1; SILAC ratio, Calu ([5]; competitor 100 μM): 1.8; SILAC ratio, Dhrs1 ([6]; competitor 10 μM): 1.4; SILAC ratio, Dhrs1 ([6]; competitor 50 μM): 2.4; SILAC ratio, Dhrs1 ([6]; competitor 100 μM): 4.4
C=CCN(C)CCCCCCOc1ccc(C(=O)c2ccc(Br)cc2)c(F)c1 [Ro 48-8071, reference compound]	1.2	1.2	0.9	1.0	0.8	0.9	9.5	
